Measured values as given in PubChem BioAssay AID248 (DTP/NCI, 2004).
Values joined by “and” are separate entries in the source; they are usually repeats but may differ in a detail not shown here. Equal values may be shown once. Toxic doses and inconclusive results are not listed.

Tested on: L1210 leukemia ip in BDF1 mice, survival T/C
Assay: NCI In Vivo Anticancer Drug Screen. Data for tumor model L1210 Leukemia (intraperitoneal) in B6D2F1 (BDF1) mice
Details: endpoint: mean survival time, higher = longer survival
Method in brief: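 Read-out is survival time, reported as the treated-group measurement over the vehicle-control measurement.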

[1] = dose: 100.0 mg/kg/injection, schedule: Q01DX001 (sc), vehicle: steriod suspending solution
[2] = dose: 200.0 mg/kg/injection, schedule: Q01DX001 (sc), vehicle: steriod suspending solution
[3] = dose: 400.0 mg/kg/injection, schedule: Q01DX001 (sc), vehicle: steriod suspending solution
[4] = dose: 100.0 mg/kg/injection, schedule: Q01DX009 (ip), vehicle: saline with Tween-80
[5] = dose: 200.0 mg/kg/injection, schedule: Q01DX009 (ip), vehicle: saline with Tween-80
[6] = dose: 400.0 mg/kg/injection, schedule: Q01DX009 (ip), vehicle: saline with Tween-80

CC(=O)CCC1(C)OC(=O)C(C)C2C1CCC1(C)C(=O)CCC21 (stereo unspecified)
T/C (dose: 50.0 mg/kg/injection, schedule: Q01DX001 (sc), vehicle: steriod suspending solution): 101 % of control | T/C [1]: 103 % of control | T/C [2]: 113 % of control | T/C [3]: 101 % of control

CCCNC(=O)Nc1cccc(Cl)c1C
T/C [4]: 102 % of control | T/C (dose: 100.0 mg/kg/injection, schedule: Q04DX003 (ip), vehicle: saline with Tween-80): 101 % of control | T/C [5]: 94 % of control | T/C (dose: 200.0 mg/kg/injection, schedule: Q04DX003 (ip), vehicle: saline with Tween-80): 94 % of control | T/C [6]: 100 % of control | T/C (dose: 400.0 mg/kg/injection, schedule: Q04DX003 (ip), vehicle: saline with Tween-80): 100 % of control

CC(C)CC(NC(=O)C(C)NC(=O)OCc1ccccc1)C(=O)NC(CC(C)C)C(=O)NCC(=O)NC1CCC2(C)C(CCC3C2CCC2(C)C(NC(=O)CNC(=O)C(CC(C)C)NC(=O)C(CC(C)C)NC(=O)C(C)NC(=O)OCc4ccccc4)CCC32)C1 (stereo unspecified)
T/C (dose: 100.0 mg/kg/injection, schedule: Q01DX009 (sc), vehicle: steriod suspending solution): 89 % of control | T/C (dose: 100.0 mg/kg/injection, schedule: Q04DX003 (sc), vehicle: steriod suspending solution): 89 % of control | T/C (dose: 200.0 mg/kg/injection, schedule: Q01DX009 (sc), vehicle: steriod suspending solution): 89 % of control | T/C (dose: 200.0 mg/kg/injection, schedule: Q04DX003 (sc), vehicle: steriod suspending solution): 103 % of control | T/C (dose: 400.0 mg/kg/injection, schedule: Q01DX009 (sc), vehicle: steriod suspending solution): 94 % of control | T/C (dose: 400.0 mg/kg/injection, schedule: Q04DX003 (sc), vehicle: steriod suspending solution): 92 % of control

CC1=CC(=O)CC(c2ccc(N(C)C)cc2)C1 (stereo unspecified)
T/C (dose: 25.6 mg/kg/injection, schedule: Q04DX002 (ip), vehicle: saline with Tween-80): 101 % of control | T/C (dose: 64.0 mg/kg/injection, schedule: Q04DX002 (ip), vehicle: saline with Tween-80): 97 % of control

C#CCOC(=O)Nc1ccccc1
T/C (dose: 50.0 mg/kg/injection, schedule: Q01DX009 (ip), vehicle: Klucel (hydroxypropylcellulose) (HPC)): 100 % of control | T/C (dose: 100.0 mg/kg/injection, schedule: Q01DX009 (ip), vehicle: Klucel (hydroxypropylcellulose) (HPC)): 100 % of control | T/C (dose: 200.0 mg/kg/injection, schedule: Q01DX009 (ip), vehicle: Klucel (hydroxypropylcellulose) (HPC)): 107 % of control

CCN(CC)CCN1CC(=O)Nc2cc(Cl)ccc21
T/C (dose: 25.0 mg/kg/injection, schedule: Q04DX003 (ip), vehicle: saline): 94 % of control | T/C (dose: 50.0 mg/kg/injection, schedule: Q04DX003 (ip), vehicle: saline): 99 % of control | T/C (dose: 100.0 mg/kg/injection, schedule: Q04DX003 (ip), vehicle: saline): 98 % of control and 87 % of control

CC(=O)N(C)c1ccc(NC(=O)Nc2cccc(C(F)(F)F)c2)cc1
T/C [4]: 94 % of control | T/C [5]: 99 % of control | T/C [6]: 97 % of control

O=P(Cc1ccccc1)(C(O)c1ccccc1)C(O)c1ccccc1 (stereo unspecified)
T/C (dose: 100.0 mg/kg/injection, schedule: Q04DX003 (ip), vehicle: Klucel (hydroxypropylcellulose) (HPC)): 87 % of control | T/C (dose: 200.0 mg/kg/injection, schedule: Q04DX003 (ip), vehicle: Klucel (hydroxypropylcellulose) (HPC)): 91 % of control

CC(=O)O[C@H]1CC[C@H]2[C@@H]3[C@H](C)CC4=CC(=O)CCC4[C@H]3CC[C@]12C (stereo partly specified)
T/C [1]: 98 % of control | T/C [2]: 100 % of control | T/C [3]: 102 % of control

C=CCOc1cc2c(ccc1=O)-c1c(cc(OC)c(OC)c1OC)CCC2NC(C)=O (stereo unspecified)
T/C (dose: 100.0 mg/kg/injection, schedule: Q01DX001 (ip), vehicle: carboxymethylcellulose (CMC)): 104 % of control | T/C (dose: 200.0 mg/kg/injection, schedule: Q01DX001 (ip), vehicle: carboxymethylcellulose (CMC)): 106 % of control | T/C (dose: 400.0 mg/kg/injection, schedule: Q01DX001 (ip), vehicle: carboxymethylcellulose (CMC)): 104 % of control

O=[N+]([O-])c1ccc(S(=O)(=O)/N=C2\CCS(=O)(=O)c3ccccc32)cc1
T/C (dose: 100.0 mg/kg/injection, schedule: Q01DX001 (ip), vehicle: saline): 92 % of control | T/C (dose: 200.0 mg/kg/injection, schedule: Q01DX001 (ip), vehicle: saline): 92 % of control | T/C (dose: 400.0 mg/kg/injection, schedule: Q01DX001 (ip), vehicle: saline): 93 % of control

CSc1ccc(NC(=O)N(CCCl)N=O)cc1
T/C (dose: 0.7 mg/kg/injection, schedule: Q01DX001 (ip), vehicle: carboxymethylcellulose (CMC)): 109 % of control | T/C (dose: 1.5 mg/kg/injection, schedule: Q01DX001 (ip), vehicle: carboxymethylcellulose (CMC)): 112 % of control | T/C (dose: 2.0 mg/kg/injection, schedule: Q01DX009 (ip), vehicle: other): 171 % of control | T/C (dose: 2.6 mg/kg/injection, schedule: Q01DX009 (ip), vehicle: carboxymethylcellulose (CMC)): 113 % of control | T/C (dose: 4.0 mg/kg/injection, schedule: Q01DX009 (ip), vehicle: carboxymethylcellulose (CMC)): 119 % of control | T/C (dose: 4.0 mg/kg/injection, schedule: Q01DX009 (ip), vehicle: other): 180 % of control | T/C (dose: 8.0 mg/kg/injection, schedule: Q01DX001 (ip), vehicle: other): 208 % of control | T/C (dose: 8.0 mg/kg/injection, schedule: Q01DX009 (ip), vehicle: other): 170 % of control | T/C (dose: 8.3 mg/kg/injection, schedule: Q01DX001 (ip), vehicle: carboxymethylcellulose (CMC)): 175 % of control | T/C (dose: 9.0 mg/kg/injection, schedule: Q01DX009 (ip), vehicle: carboxymethylcellulose (CMC)): 156 % of control | T/C (dose: 12.0 mg/kg/injection, schedule: Q01DX001 (ip), vehicle: other): 194 % of control | T/C (dose: 12.5 mg/kg/injection, schedule: Q01DX001 (ip), vehicle: carboxymethylcellulose (CMC)): 187 % of control | T/C (dose: 18.0 mg/kg/injection, schedule: Q01DX001 (ip), vehicle: other): 101 % of control | T/C (dose: 18.7 mg/kg/injection, schedule: Q01DX001 (ip), vehicle: carboxymethylcellulose (CMC)): 211 % of control | T/C (dose: 25.0 mg/kg/injection, schedule: Q01DX001 (ip), vehicle: carboxymethylcellulose (CMC)): 94 % of control

Nc1ncnc(Nc2ccccc2[N+](=O)[O-])c1[N+](=O)[O-]
T/C (dose: 12.5 mg/kg/injection, schedule: Q01DX001 (ip), vehicle: Klucel (hydroxypropylcellulose) (HPC)): 97 % of control | T/C (dose: 25.0 mg/kg/injection, schedule: Q01DX001 (ip), vehicle: Klucel (hydroxypropylcellulose) (HPC)): 87 % of control | T/C (dose: 50.0 mg/kg/injection, schedule: Q01DX001 (ip), vehicle: Klucel (hydroxypropylcellulose) (HPC)): 87 % of control

Cc1c2ccn(O)cc2cc2c1nc1ccccc12
T/C (dose: 18.75 mg/kg/injection, schedule: Q01DX009 (ip), vehicle: other): 116 % of control | T/C (dose: 37.5 mg/kg/injection, schedule: Q01DX009 (ip), vehicle: other): 114 % of control | T/C (dose: 75.0 mg/kg/injection, schedule: Q01DX009 (ip), vehicle: other): 112 % of control | T/C (dose: 150.0 mg/kg/injection, schedule: Q01DX009 (ip), vehicle: other): 110 % of control

CN1N=Nc2cccc3cccc1c23
T/C (dose: 50.0 mg/kg/injection, schedule: Q01DX009 (ip), vehicle: acetone): 112 % of control | T/C (dose: 100.0 mg/kg/injection, schedule: Q01DX009 (ip), vehicle: acetone): 107 % of control | T/C (dose: 100.0 mg/kg/injection, schedule: Q04DX003 (ip), vehicle: acetone): 94 % of control | T/C (dose: 200.0 mg/kg/injection, schedule: Q04DX003 (ip), vehicle: acetone): 87 % of control

CCOC(=O)c1cnc(SCC)nc1SC#N
T/C (dose: 100.0 mg/kg/injection, schedule: Q01DX009 (ip), vehicle: gum acacia): 105 % of control | T/C (dose: 100.0 mg/kg/injection, schedule: Q04DX003 (ip), vehicle: gum acacia): 105 % of control | T/C (dose: 200.0 mg/kg/injection, schedule: Q01DX009 (ip), vehicle: gum acacia): 106 % of control | T/C (dose: 200.0 mg/kg/injection, schedule: Q04DX003 (ip), vehicle: gum acacia): 97 % of control | T/C (dose: 400.0 mg/kg/injection, schedule: Q01DX009 (ip), vehicle: gum acacia): 97 % of control | T/C (dose: 400.0 mg/kg/injection, schedule: Q04DX003 (ip), vehicle: gum acacia): 97 % of control

c1ccc2c(c1)ccc1ccc(C3=NCCO3)cc12
T/C (dose: 100.0 mg/kg/injection, schedule: Q01DX001 (ip), vehicle: Klucel (hydroxypropylcellulose) (HPC)): 94 % of control | T/C (dose: 200.0 mg/kg/injection, schedule: Q01DX001 (ip), vehicle: Klucel (hydroxypropylcellulose) (HPC)): 100 % of control | T/C (dose: 400.0 mg/kg/injection, schedule: Q01DX001 (ip), vehicle: Klucel (hydroxypropylcellulose) (HPC)): 100 % of control

C1CCC2OC3(CC2C1)OC1CCCCC1O3 (stereo unspecified)
T/C (dose: 75.0 mg/kg/injection, schedule: Q04DX002 (ip), vehicle: saline + alcohol): 101 % of control | T/C (dose: 150.0 mg/kg/injection, schedule: Q04DX002 (ip), vehicle: saline + alcohol): 116 % of control | T/C (dose: 300.0 mg/kg/injection, schedule: Q04DX002 (ip), vehicle: saline + alcohol): 105 % of control
